# Measurements from patent US9120791B2, “Indolizine compounds, a process for their preparation and pharmaceutical compositions containing them” (LES LABORATOIRES SERVIER, priority 2012, dated 2015).
# Where a name gives a salt, the structure may show the parent alone. Read-outs that look alike come from different tables or passages of the source.
# Experiments:
# [1] = system: RS4;11 leukaemia tumour line; assay: In vitro cytotoxicity (Microculture Tetrazolium Assay, 48 hours); format: cell-based; conditions: RS4;11 cells, 48 hours exposure, MTT, concentration that inhibits cell viability by 50%, read-out: IC50 (nM) MTT RS4
# Procedure: The cytotoxicity studies were carried out on the RS4;11 leukaemia tumour line.
# The cells are distributed onto microplates and exposed to the test compounds for 48 hours.
# [2] = molecular target: Bcl-2 protein (Homo sapiens (Human), UniProt P10415); assay: Inhibition of Bcl-2 by the fluorescence polarisation technique; format: binding; conditions: fluorescence polarisation test; concentration that inhibits fluorescence polarisation by 50%; read-out: IC50 (nM) Bcl-2 FP
# Procedure: The fluorescence polarisation tests were carried out on microplates (384 wells). […] After incubation for 2 hours, the fluorescence polarisation is measured.
# Bcl-2 protein, sequence (P10415 whole entry): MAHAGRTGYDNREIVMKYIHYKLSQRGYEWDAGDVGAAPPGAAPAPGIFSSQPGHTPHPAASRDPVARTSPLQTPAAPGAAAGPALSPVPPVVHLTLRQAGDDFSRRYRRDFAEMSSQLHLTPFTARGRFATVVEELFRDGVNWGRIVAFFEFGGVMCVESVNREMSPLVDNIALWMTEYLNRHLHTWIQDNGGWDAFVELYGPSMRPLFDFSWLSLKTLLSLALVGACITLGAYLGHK
Molecule,IC50 ([1]; Homo sapiens) [nM],IC50 [2] [nM],IC50 [1] [nM]
"O=C(c1cc(-c2cc(F)ccc2C(=O)N2Cc3ccccc3C[C@H]2CN2CCOCC2)n2c1CC(O)CC2)N(c1ccccc1)c1ccc(O)cc1 (stereo partly drawn) [Example 100, 3-(5-Fluoro-2-{[(3S)-3-(morpholin-4-ylmethyl)-3,4-dihydroisoquinolin-2(1H)-yl]carbonyl}phenyl)-7-hydroxy-N-(4-hydroxyphenyl)-N-phenyl-5,6,7,8-tetrahydroindolizine-1-carboxamide hydrochloride]",856,22,–
"CN1CCN(C[C@@H]2Cc3ccccc3CN2C(=O)c2cc3c(cc2-c2cc(C(=O)N(c4ccc(O)cc4)c4ccc5c(ccn5C)c4)c4n2CCC4)OCO3)CC1 [Example 76, N-(4-Hydroxyphenyl)-N-(1-methyl-1H-indol-5-yl)-5-{6-[((3S)-3-[(4-methyl-1-piperazinyl)methyl]-3,4-dihydro-2(1H)-isoquinolinyl)carbonyl]-1,3-benzodioxol-5-yl}-2,3-dihydro-1H-pyrrolizine-7-carboxamide bis(hydrochloride)]",49,17,–
"CN1CCc2cc(N(C(=O)c3cc(-c4cc(Br)ccc4C(=O)N4Cc5ccccc5C[C@H]4CN4CCOCC4)n4c3CCCC4)c3ccc(O)cc3)ccc21 [Example 19, 3-{5-Bromo-2-[((3S)-3-(4-morpholinylmethyl)-3,4-dihydro-2(1H)-isoquinolinyl)carbonyl]phenyl}-N-(4-hydroxyphenyl)-N-(1-methyl-2,3-dihydro-1H-indol-5-yl)-5,6,7,8-tetrahydro-1-indolizine carboxamide hydrochloride]",42.3,27,–
"Cc1ccc(N(C(=O)c2cc(-c3cc(Cl)ccc3C(=O)N3Cc4ccccc4C[C@H]3CN3CCOCC3)n3c2COCC3)c2ccc(O)cc2)cc1F [Example 82, 6-{5-Chloro-2-[((3S)-3-(4-morpholinylmethyl)-3,4-dihydro-2(1H)-isoquinolinyl)carbonyl]phenyl}-N-(3-fluoro-4-methylphenyl)-N-(4-hydroxyphenyl)-3,4-dihydro-1H-pyrrolo[2,1-c][1,4]oxazine-8-carboxamide hydrochloride]",21.9,33,–
"CS(=O)(=O)N1CCN(C[C@@H]2Cc3ccccc3CN2C(=O)c2cc3c(cc2-c2cc(C(=O)N(c4ccccc4)c4ccc(O)cc4)c4n2CCCC4)OCO3)CC1 [Example 123, N-(4-Hydroxyphenyl)-3-(6-{[(3S)-3-{[4-(methylsulphonyl)piperazin-1-yl]methyl}-3,4-dihydroisoquinolin-2(1H)-yl]carbonyl}-1,3-benzodioxol-5-yl)-N-phenyl-5,6,7,8-tetrahydroindolizine-1-carboxamide hydrochloride]",92.1,22,–
"O=C(c1cc(-c2cc3c(cc2C(=O)N2Cc4ccccc4C[C@H]2CN2CCOCC2)OCCO3)n2c1CCCC2)N(c1ccccc1)c1ccc(O)cc1 [Example 34, N-(4-Hydroxyphenyl)-3-{7-[((3S)-3-(4-morpholinylmethyl)-3,4-dihydro-2(1H)-isoquinolinyl)carbonyl]-2,3-dihydro-1,4-benzdioxin-6-yl}-N-phenyl-5,6,7,8-tetrahydro-1-indolizine carboxamide hydrochloride]",65.8,27,–
"CN1CCN(C[C@@H]2Cc3ccccc3CN2C(=O)c2ccc(Cl)cc2-c2cc(C(=O)N(c3ccc(O)cc3)c3ccc4c(ccn4C)c3)c3n2CCC3)CC1 [Example 77, 5-{5-Chloro-2-[((3S)-3-[(4-methyl-1-piperazinyl)methyl]-3,4-dihydro-2(1H)-isoquinolinyl)carbonyl]phenyl}-N-(4-hydroxyphenyl)-N-(1-methyl-1H-indol-5-yl)-2,3-dihydro-1H-pyrrolizine-7-carboxamide bis(hydrochloride)]",70.4,23,–
"Tert-butyl 8-{[4-hydroxy(1-methyl-1H-indol-5-yl)anilino]carbonyl}-6-{6-[((3S)-3-(4-morpholinylmethyl)-3,4-dihydro-2(1H)-isoquinolinyl)carbonyl]-1,3-benzodioxol-5-yl}-3,4-dihydropyrrolo[1,2-a]pyrazine-2(1H)-carboxylate [Example 72]",–,220,270
"Cn1ncc2cc(N(C(=O)c3cc(-c4cc(F)ccc4C(=O)N4Cc5ccccc5C[C@H]4CN4CCOCC4)n4c3CCCC4)c3ccc(O)cc3)ccc21 [Example 44, 3-{5-Fluoro-2-[((3S)-3-(4-morpholinylmethyl)-3,4-dihydro-2(1H)-isoquinolinyl)carbonyl]phenyl}-N-(4-hydroxyphenyl)-N-(1-methyl-1H-indazol-5-yl)-5,6,7,8-tetrahydro-1-indolizine carboxamide hydrochloride]",45,14,–
"COc1ccc(N(C(=O)c2cc(-c3cc(Cl)ccc3C(=O)N3Cc4ccccc4C[C@H]3CN3CCOCC3)n3c2CCCC3)c2ccc(O)cc2)cc1C(F)(F)F [Example 53, 3-{5-Chloro-2-[((3S)-3-(4-morpholinylmethyl)-3,4-dihydro-2(1H)-isoquinolinyl)carbonyl]phenyl}-N-(4-hydroxyphenyl)-N-[4-methoxy-3-(trifluoro-methyl)phenyl]-5,6,7,8-tetrahydro-1-indolizine carboxamide hydrochloride]",138,180,–
"O=C(c1cc(-c2cc(Cl)ccc2C(=O)N2Cc3ccccc3C[C@H]2CN2CCOCC2)n2c1CCCC2)N(c1ccccc1)c1ccc(O)cc1 [Example 20, 3-{5-Chloro-2-[((3S)-3-(4-morpholinylmethyl)-3,4-dihydro-2(1H)-isoquinolinyl)carbonyl]phenyl}-N-(4-hydroxyphenyl)-N-phenyl-5,6,7,8-tetrahydro-1-indolizine carboxamide hydrochloride]",105,35,–
"CN1CCc2cc(N(C(=O)c3cc(-c4cc5c(cc4C(=O)N4Cc6ccccc6C[C@H]4CN4CCOCC4)OCO5)n4c3COCC4)c3ccc(O)cc3)ccc21 [Example 81, N-(4-Hydroxyphenyl)-N-(1-methyl-2,3-dihydro-1H-indol-5-yl)-6-{6-[((3S)-3-(4-morpholinylmethyl)-3,4-dihydro-2(1H)-isoquinolinyl)carbonyl]-1,3-benzodioxol-5-yl}-3,4-dihydro-1H-pyrrolo[2,1-c][1,4]oxazine-8-carboxamide hydrochloride]",39.3,28,–
"O=C(c1cc(-c2cc(F)ccc2C(=O)N2Cc3ccccc3C[C@H]2CN2CCOCC2)n2c1COCC2)N(c1ccc(O)cc1)c1ccc(F)cc1 [Example 99, 6-(5-Fluoro-2-{[(3S)-3-(morpholin-4-ylmethyl)-3,4-dihydroisoquinolin-2(1H)-yl]carbonyl}phenyl)-N-(4-fluorophenyl)-N-(4-hydroxyphenyl)-3,4-dihydro-1H-pyrrolo[2,1-c][1,4]oxazine-8-carboxamide hydrochloride]",213,25,–
"Cn1ccc2cc(N(C(=O)c3cc(-c4cc(OC(F)(F)F)ccc4C(=O)N4Cc5ccccc5C[C@H]4CN4CCOCC4)n4c3CCCC4)c3ccc(O)cc3)ccc21 [Example 48, N-(4-Hydroxyphenyl)-N-(1-methyl-1H-indol-5-yl)-3-[2-[((3S)-3-(4-morpholinylmethyl)-3,4-dihydro-2(1H)-isoquinolinyl)carbonyl]-5-(trifluoromethoxy)-phenyl]-5,6,7,8-tetrahydro-1-indolizine carboxamide hydrochloride]",229,130,–
"CN1CCN(C[C@@H]2Cc3ccccc3CN2C(=O)c2cc3c(cc2-c2cc(C(=O)N(c4ccccc4)c4ccc(O)cc4)c4n2CCCC4)OCO3)CC1=O [Example 128, N-(4-Hydroxyphenyl)-3-(6-{[(3S)-3-[(4-methyl-3-oxopiperazin-1-yl)methyl]-3,4-dihydroisoquinolin-2(1H)-yl]carbonyl}-1,3-benzodioxol-5-yl)-N-phenyl-5,6,7,8-tetrahydroindolizine-1-carboxamide hydrochloride]",63.4,10,–
"O=C(c1cc(-c2cc3c(cc2C(=O)N2Cc4ccccc4C[C@H]2CN2CCOCC2)OCCCO3)n2c1CCCC2)N(c1ccccc1)c1ccc(O)cc1 [Example 31, N-(4-Hydroxyphenyl)-3-{8-[((3S)-3-(4-morpholinylmethyl)-3,4-dihydro-2(1H)-isoquinolinyl)carbonyl]-3,4-dihydro-2H-1,5-benzodioxepin-7-yl}-N-phenyl-5,6,7,8-tetrahydro-1-indolizine carboxamide hydrochloride]",340,33,–
"O=C(c1cc(-c2cc3c(cc2C(=O)N2Cc4ccccc4C[C@H]2CN2CCOCC2)OCO3)n2c1CC(O)CC2)N(c1ccccc1)c1ccc(O)cc1 (stereo partly drawn) [Example 113, 7-Hydroxy-N-(4-hydroxyphenyl)-3-(6-{[(3S)-3-(morpholin-4-ylmethyl)-3,4-dihydroisoquinolin-2(1H)-yl]carbonyl}-1,3-benzodioxol-5-yl)-N-phenyl-5,6,7,8-tetrahydroindolizine-1-carboxamide hydrochloride]",190,16,–
"Cc1cccc(N(C(=O)c2cc(-c3cc(Cl)ccc3C(=O)N3Cc4ccccc4C[C@H]3CN3CCOCC3)n3c2CCCC3)c2ccc(O)cc2)c1 [Example 126, 3-(5-Chloro-2-{[(3S)-3-(morpholin-4-ylmethyl)-3,4-dihydroisoquinolin-2(1H)-yl]carbonyl}phenyl)-N-(4-hydroxyphenyl)-N-(3-methylphenyl)-5,6,7,8-tetrahydroindolizine-1-carboxamide hydrochloride]",115,26,–
